The values below come from patent publication US20260201008A1, “SECRETIN-DERIVED GLP1R SELECTIVE AGONISTS” (GUBRA A/S, priority 2023, published 2026).

Series [1] can be described thus: Turbidity of crude library peptides (absorbance at 600 nm). Type of series: physicochemical. The settings on record: Physical stability of peptides. In a few lines: (§1)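 Values reflect mean ThT emission (ex 450, em 480 nm) over 72 h at 40° C, read every 10 min after 5 min shaking at 700 rpm, plus a single initial absorbance at 600 nm for turbidity. Peptides were at 267 μM, pH 4.0 acetate or pH 7.0 phosphate (50 mM), with 4 μM ThT.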

For the next series, the target named is SCTR (Homo sapiens, UniProt P47872). As to the kind of experiment: hSCTR potency, cAMP accumulation in CHO-K1 cells stably overexpressing hSCTR. Type of series: cell-based. The arrangement: alternatively Euroscreen ES-712-AF; FAST-0161L; host or cells: CHO-K1. The settings on record: cAMP accumulation, CHO-K1 cells overexpressing hSCTR; read-out: hSCTR pEC50 (converted). In outline:
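Division-arrested CHO-K1 cells stably expressing hSCTR were plated in DPBS with 0.05% casein and 0.5 mM IBMX, then stimulated with test peptide for 30 min at room temperature. cAMP was read by HTRF after one hour. EC50 came from variable-slope sigmoidal nonlinear regression.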
(cAMP levels reflect the balance of adenylyl cyclase and phosphodiesterase activity.)

The nature of series [2]: Fibril formation of crude library peptides (Thioflavin T). The note with it: Physical stability of peptides. On the set-up: key: average ThT fluorescence emission at 480 nm (ex 450 nm), raw units. Format: physicochemical. In outline: as §1
Another series concerns the target GLP1R (Homo sapiens, UniProt P43220). The series is described as follows: hGLP1R potency, cAMP accumulation in CHO-K1 cells stably overexpressing hGLP1R. Type of series: cell-based. On the set-up: host or cells: CHO-K1. The note with it: for EC50: cAMP accumulation, CHO-K1 cells overexpressing hGLP1R, read-out: hGLP1R pEC50 (converted); for SCTR EC50/GLP1R EC50 ratio: selectivity for hGLP1R over hSCTR, cAMP accumulation in CHO-K1 cells. In outline: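 Cells were plated in DPBS with 0.05% casein and 0.5 mM IBMX, then stimulated for 30 min at room temperature with test compound. cAMP was read by TR-FRET after one hour. EC50 came from variable-slope sigmoid nonlinear regression; purified peptides ran as 11-point 3-fold series, n=2.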

Each structure is given as a SMILES string. Numbered stars: 1 amine (or outer) side, 2 acyl side, 3 side chain; on linkers, the order of the positions; unused ones are H or OH. Square brackets hold non-standard residues; d marks the D form. Side chains are listed from the residue outwards. Peptide text beside a SMILES is read from it. * marks the point of attachment. C20 diacid = O=C(O)CCCCCCCCCCCCCCCCCCC(=O)*; γGlu = O=C(O)[C@H](CCC(=O)[*:2])N[*:1]; AEEA = NCCOCCOCC(=O)O; Aib = CC(C)(N)C(=O)O

Chain of GLP1R (P43220 24-463): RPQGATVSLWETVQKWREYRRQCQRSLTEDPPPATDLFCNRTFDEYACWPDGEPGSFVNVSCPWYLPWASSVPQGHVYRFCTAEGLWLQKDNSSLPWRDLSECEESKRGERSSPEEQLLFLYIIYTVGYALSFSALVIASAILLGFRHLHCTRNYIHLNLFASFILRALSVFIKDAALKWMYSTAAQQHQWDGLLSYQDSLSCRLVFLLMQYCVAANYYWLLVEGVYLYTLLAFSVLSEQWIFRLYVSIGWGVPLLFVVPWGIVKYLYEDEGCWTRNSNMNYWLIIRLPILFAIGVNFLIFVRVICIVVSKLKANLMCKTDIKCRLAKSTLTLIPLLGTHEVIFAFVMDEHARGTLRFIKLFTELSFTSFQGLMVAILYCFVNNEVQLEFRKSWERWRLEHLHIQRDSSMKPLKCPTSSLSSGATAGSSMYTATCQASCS
Chain of SCTR (P47872 23-440): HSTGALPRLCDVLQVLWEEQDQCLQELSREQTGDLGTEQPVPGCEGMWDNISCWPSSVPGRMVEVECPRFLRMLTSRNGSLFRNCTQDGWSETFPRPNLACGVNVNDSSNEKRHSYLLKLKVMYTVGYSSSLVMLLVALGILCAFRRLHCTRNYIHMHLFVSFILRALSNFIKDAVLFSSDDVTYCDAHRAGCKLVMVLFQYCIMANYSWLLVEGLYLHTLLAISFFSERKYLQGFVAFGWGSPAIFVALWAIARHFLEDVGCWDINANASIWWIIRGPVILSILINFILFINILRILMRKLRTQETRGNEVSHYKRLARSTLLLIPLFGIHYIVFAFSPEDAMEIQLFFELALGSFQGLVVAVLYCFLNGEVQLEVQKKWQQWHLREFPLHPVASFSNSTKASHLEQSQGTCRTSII

On to `CC[C@H](C)[C@H](NC(=O)[C@H](Cc1ccccc1)NC(=O)[C@H](CCCNC(=N)N)NC(=O)[C@H](CCC(N)=O)NC(=O)[C@H](CC(C)C)NC(=O)[C@H](C)NC(=O)[C@H](C)NC(=O)CNC(=O)[C@H](CCC(=O)O)NC(=O)[C@H](CC(C)C)NC(=O)[C@H](CC(C)C)NC(=O)[C@H](Cc1ccc(O)cc1)NC(=O)[C@H](CO)NC(=O)[C@@H]1CCCN1C(=O)[C@H](CC(=O)O)NC(=O)[C@H](CO)NC(=O)[C@@H](NC(=O)[C@H](Cc1ccccc1)NC(=O)[C@@H](NC(=O)CNC(=O)[C@H](CCC(=O)O)NC(=O)C(C)(C)NC(=O)[C@@H](N)Cc1c[nH]cn1)[C@@H](C)O)[C@@H](C)O)C(=O)N[C@@H](CCC(N)=O)C(=O)N[C@@H](Cc1c[nH]c2ccccc12)C(=O)N[C@@H](CC(C)C)C(=O)N[C@H](C(N)=O)C(C)C` [compound 128] (H-H[Aib]EGTFTSDPSYLLEGAALQRFIQWLV-NH2), for which, in series [1], the “Turbidity (pH 7)” value is on record as 0.20. Also, on SCTR, the EC50 was 20000 nM. This molecule yielded a Fibril formation in series [2] of 6144. Besides, at GLP1R, the EC50 is 15.8 nM and the “SCTR EC50/GLP1R EC50 ratio” value amounted to 1467.
In the same order, the values of `CC[C@H](C)[C@H](NC(=O)[C@H](Cc1ccccc1)NC(=O)[C@H](CCCNC(=N)N)NC(=O)[C@H](CCC(N)=O)NC(=O)[C@H](CC(C)C)NC(=O)[C@H](C)NC(=O)[C@H](C)NC(=O)CNC(=O)[C@H](CCC(=O)O)NC(=O)[C@H](CC(C)C)NC(=O)[C@H](CC(C)C)NC(=O)[C@@H](NC(=O)[C@H](CO)NC(=O)[C@@H]1CCCN1C(=O)[C@H](CC(=O)O)NC(=O)[C@H](CO)NC(=O)[C@@H](NC(=O)[C@H](Cc1ccccc1)NC(=O)[C@@H](NC(=O)CNC(=O)[C@H](CCC(=O)O)NC(=O)C(C)(C)NC(=O)[C@@H](N)Cc1c[nH]cn1)[C@@H](C)O)[C@@H](C)O)C(C)C)C(=O)N[C@@H](CCC(N)=O)C(=O)N[C@@H](Cc1c[nH]c2ccccc12)C(=O)N[C@@H](CC(C)C)C(=O)N[C@H](C(N)=O)C(C)C` [compound 129] (H-H[Aib]EGTFTSDPSVLLEGAALQRFIQWLV-NH2) are 0.12, 10000 nM, 5327, 7.94 nM and 1220.
In the same order, the values of `CC(C)C[C@H](NC(=O)[C@H](Cc1ccccc1)NC(=O)[C@H](CCCNC(=N)N)NC(=O)[C@H](CCC(N)=O)NC(=O)[C@H](CC(C)C)NC(=O)C(C)(C)NC(=O)[C@H](C)NC(=O)[C@H](CCC(=O)O)NC(=O)[C@H](CCC(=O)O)NC(=O)[C@H](Cc1c[nH]c2ccccc12)NC(=O)[C@H](CC(C)C)NC(=O)[C@H](Cc1ccc(O)cc1)NC(=O)[C@H](CO)NC(=O)[C@@H](NC(=O)[C@H](CC(=O)O)NC(=O)[C@H](CO)NC(=O)[C@@H](NC(=O)[C@H](Cc1ccccc1)NC(=O)[C@@H](NC(=O)CNC(=O)[C@H](CCC(=O)O)NC(=O)C(C)(C)NC(=O)[C@@H](N)Cc1c[nH]cn1)[C@@H](C)O)[C@@H](C)O)C(C)C)C(=O)N[C@@H](CCC(=O)O)C(=O)N[C@@H](CCCCNC(=O)COCCOCCNC(=O)COCCOCCNC(=O)CC[C@H](NC(=O)CCCCCCCCCCCCCCCCCCC(=O)O)C(=O)O)C(=O)N[C@@H](CC(C)C)C(=O)N[C@H](C(N)=O)C(C)C` [compound 130] (H-H[Aib]EGTFTSDVSYLWEEA[Aib]LQRFLEK([AEEA-AEEA-γGlu-C20 diacid])LV-NH2) are 0.08, 1000 nM, 4181, 0.0316 nM and 34990.
The corresponding values for `CC(C)C[C@H](NC(=O)[C@H](Cc1ccccc1)NC(=O)[C@H](CCCNC(=N)N)NC(=O)[C@H](CCC(N)=O)NC(=O)[C@H](CC(N)=O)NC(=O)C(C)(C)NC(=O)[C@H](C)NC(=O)[C@H](CCC(=O)O)NC(=O)[C@H](CCC(=O)O)NC(=O)[C@H](CCCCNC(=O)COCCOCCNC(=O)COCCOCCNC(=O)CC[C@H](NC(=O)CCCCCCCCCCCCCCCCCCC(=O)O)C(=O)O)NC(=O)[C@H](CC(C)C)NC(=O)[C@H](Cc1ccc(O)cc1)NC(=O)[C@H](CO)NC(=O)[C@@H](NC(=O)[C@H](CC(=O)O)NC(=O)[C@H](CO)NC(=O)[C@@H](NC(=O)[C@H](Cc1ccccc1)NC(=O)[C@@H](NC(=O)CNC(=O)[C@H](CCC(=O)O)NC(=O)C(C)(C)NC(=O)[C@@H](N)Cc1c[nH]cn1)[C@@H](C)O)[C@@H](C)O)C(C)C)C(=O)N[C@@H](CCC(=O)O)C(=O)N[C@@H](Cc1c[nH]cn1)C(=O)N[C@@H](CC(C)C)C(=O)N[C@H](C(N)=O)C(C)C` [compound 131] (H-H[Aib]EGTFTSDVSYLK([AEEA-AEEA-γGlu-C20 diacid])EEA[Aib]NQRFLEHLV-NH2) are 0.09, 5010 nM, 2709, 0.00501 nM and 996093.
`CC(C)C[C@H](NC(=O)[C@H](C)NC(=O)[C@H](CCC(=O)O)NC(=O)[C@H](CCC(=O)O)NC(=O)[C@H](CCCCNC(=O)COCCOCCNC(=O)COCCOCCNC(=O)CC[C@H](NC(=O)CCCCCCCCCCCCCCCCCCC(=O)O)C(=O)O)NC(=O)[C@H](CC(C)C)NC(=O)[C@H](Cc1ccc(O)cc1)NC(=O)[C@H](CO)NC(=O)[C@@H](NC(=O)[C@H](CC(=O)O)NC(=O)[C@H](CO)NC(=O)[C@@H](NC(=O)[C@H](Cc1ccccc1)NC(=O)[C@@H](NC(=O)CNC(=O)[C@H](CCC(=O)O)NC(=O)C(C)(C)NC(=O)[C@@H](N)Cc1c[nH]cn1)[C@@H](C)O)[C@@H](C)O)C(C)C)C(=O)N[C@@H](CC(C)C)C(=O)N[C@@H](CCC(N)=O)C(=O)N[C@@H](CCCNC(=N)N)C(=O)N[C@@H](Cc1ccccc1)C(=O)N[C@@H](CC(C)C)C(=O)N[C@@H](CCC(=O)O)C(=O)N[C@@H](Cc1c[nH]cn1)C(=O)N[C@@H](CC(C)C)C(=O)N[C@H](C(N)=O)C(C)C` [compound 132] (H-H[Aib]EGTFTSDVSYLK([AEEA-AEEA-γGlu-C20 diacid])EEALLQRFLEHLV-NH2): the “Turbidity (pH 7)” value in series [1] was 0.08. The figures for the EC50 on SCTR and at GLP1R were 200 nM and 0.02 nM, respectively. Also, the Fibril formation in series [2] was found to be 3358. For the same molecule, the “SCTR EC50/GLP1R EC50 ratio” value at GLP1R stood at 10415.
With `CC(C)C[C@H](NC(=O)[C@H](Cc1ccccc1)NC(=O)[C@H](CCCNC(=N)N)NC(=O)[C@H](CCC(N)=O)NC(=O)[C@H](CC(C)C)NC(=O)C(C)(C)NC(=O)[C@H](C)NC(=O)[C@H](CCC(=O)O)NC(=O)[C@H](CCC(=O)O)NC(=O)[C@H](CCCCNC(=O)COCCOCCNC(=O)COCCOCCNC(=O)CC[C@H](NC(=O)CCCCCCCCCCCCCCCCCCC(=O)O)C(=O)O)NC(=O)[C@H](CC(C)C)NC(=O)[C@H](Cc1ccc(O)cc1)NC(=O)[C@H](CO)NC(=O)[C@@H](NC(=O)[C@H](CC(=O)O)NC(=O)[C@H](CO)NC(=O)[C@@H](NC(=O)[C@H](Cc1ccccc1)NC(=O)[C@@H](NC(=O)CNC(=O)[C@H](CCC(=O)O)NC(=O)C(C)(C)NC(=O)[C@@H](N)Cc1c[nH]cn1)[C@@H](C)O)[C@@H](C)O)C(C)C)C(=O)N[C@@H](CCC(=O)O)C(=O)N[C@@H](Cc1ccccc1)C(=O)N[C@@H](CC(C)C)C(=O)N[C@H](C(N)=O)C(C)C` [compound 133] (H-H[Aib]EGTFTSDVSYLK([AEEA-AEEA-γGlu-C20 diacid])EEA[Aib]LQRFLEFLV-NH2), the “Turbidity (pH 7)” value in series [1] came out at 0.08. Moreover, the EC50 at SCTR was 398 nM. The molecule further gave a Fibril formation in series [2] of 4303. Further, at GLP1R, the EC50 is 0.0158 nM and the “SCTR EC50/GLP1R EC50 ratio” value was 23332.
For `CC(C)C[C@H](NC(=O)[C@H](Cc1ccccc1)NC(=O)[C@H](CCCNC(=N)N)NC(=O)[C@H](CCC(N)=O)NC(=O)[C@H](CO)NC(=O)C(C)(C)NC(=O)[C@H](C)NC(=O)[C@H](CCC(=O)O)NC(=O)[C@H](CCC(=O)O)NC(=O)[C@H](CCCCNC(=O)COCCOCCNC(=O)COCCOCCNC(=O)CC[C@H](NC(=O)CCCCCCCCCCCCCCCCCCC(=O)O)C(=O)O)NC(=O)[C@H](CC(C)C)NC(=O)[C@H](Cc1ccc(O)cc1)NC(=O)[C@H](CO)NC(=O)[C@@H](NC(=O)[C@H](CC(=O)O)NC(=O)[C@H](CO)NC(=O)[C@@H](NC(=O)[C@H](Cc1ccccc1)NC(=O)[C@@H](NC(=O)CNC(=O)[C@H](CCC(=O)O)NC(=O)C(C)(C)NC(=O)[C@@H](N)Cc1c[nH]cn1)[C@@H](C)O)[C@@H](C)O)C(C)C)C(=O)N[C@@H](CCC(=O)O)C(=O)N[C@@H](Cc1c[nH]cn1)C(=O)N[C@@H](CC(C)C)C(=O)N[C@H](C(N)=O)C(C)C` [compound 134] (H-H[Aib]EGTFTSDVSYLK([AEEA-AEEA-γGlu-C20 diacid])EEA[Aib]SQRFLEHLV-NH2), in series [1], the “Turbidity (pH 7)” value was 0.08. For the same molecule, the values for the EC50 on SCTR and at GLP1R were 2510 nM and 0.00794 nM, respectively. Also, the Fibril formation in series [2] is recorded as 3061. The “SCTR EC50/GLP1R EC50 ratio” value on GLP1R was 303145.
